Data as given in patent US9873674B2, “C-Rel inhibitors and uses thereof” (CORNELL UNIVERSITY, priority 2012, dated 2018).

How the values were obtained:
MM1-144 cells = test: Tumor cell cytotoxicity assay, multiple myeloma cell line MM1-144; format: cell-based; conditions: MM1-144 cells (use both pathways), 48 hours
Procedure: (§1) For example, the “classical” Rel pathway is crucial for the survival of L363 cell line, whereas the “alternative” pathway is important for the survival of RPMI8226 cells.
(§2) The MM and DLBCL cell lines were used to test for tumor cell cytotoxicity by the Rel inhibitor analogs. As an example, three MM cell lines were treated with a Rel inhibitor for 48 hours and cell numbers were enumerated as percentage of control group.

STZ-induced diabetes = test: Streptozotocin (STZ)-induced diabetes model; format: in vivo; conditions: 40 μg/mouse/day IP, day 0 to day 5, C57BL/6 mice; data not shown
Procedure: In yet another example, a Rel inhibitor compound was tested in Streptozotocin (STZ)-induced diabetes model. C57BL/6 (cRel+/+) mice were treated with low dose STZ for 5 days to induce diabetes, as indicated by glucose level above 300 mg/dl. c-Rel(−/−) mice were used as a control group. The Rel inhibitor (BA-001, 40 μg/mouse/day) or DMSO were injected IP to a group of five C57BL/6 mice for six consecutive days from day 0 to day 5. Glucose levels were determined at day 5, 7, 9, 12, 15, 19 and 27.

CD69 = test: Expression of non-c-Rel target genes; format: cell-based, mouse or human
DLBCL tumor cells = test: DLBCL xenograft tumor model in NOD/SCID mice; format: in vivo, mouse
Procedure: Xenograft tumor models have been widely used to study human cancer. […] The experiment used non-obese diabetic (NOD)/SCID mice for testing Rel inhibitor analogs.
Male NOD/SCID mice were injected with 3-5×10^6 of DLBCL tumor cells subcutaneously in each flank area. When tumors were palpable (˜12 days after injection), the mice were randomized to receive either vehicle or test compounds corresponding to Rel inhibitors of the invention. In some experiments, DHMEQ was used as a benchmark compound. Compounds were administrated via i.p. at 12 to 24 mg/kg, three days per week for 2-3 weeks. Tumor volume was measured twice a week.

IL-2 [1] = test: IL-2 expression, intracellular cytokine staining and flow cytometry in CD4+ T cells; format: cell-based, mouse or human; conditions: anti-CD3+anti-CD28 for 6 hours, % cytokine-expressing CD4+ T cells; data not shown
Procedure: (§3) Since autoimmune diseases are associated with elevated levels of inflammatory cytokines, it is important to identify Rel inhibitors that can inhibit the expression of inflammatory cytokines. As c-Rel regulates the expression of several cytokines including IL-2, IFN-γ, and TNF, assays for these cytokines can be used to assess the anti-inflammatory effects of Rel inhibitor analogs. To perform such experiments, mouse splenocytes or human PBMCs were stimulated with anti-CD3+anti-CD28 for 6 hours to induce cytokine expression. Compounds were added at the beginning of the culture. Cytokines (IL-2, IFN-γ, and TNF) were measured by intracellular cytokine staining and flow cytometry and the % of cytokine-expressing cells within CD4+ T cell population was enumerated. Compounds at varying doses were tested.

RPMI8226 cells = test: Tumor cell cytotoxicity assay, multiple myeloma cell line RPMI8226; format: cell-based; conditions: RPMI8226 cells (active alternative pathway), 48 hours
Procedure: as §1, §2

TNF = TNF expression, intracellular cytokine staining and flow cytometry in CD4+ T cells; format: cell-based, mouse or human; conditions: anti-CD3+anti-CD28 for 6 hours, % cytokine-expressing CD4+ T cells; data not shown
Procedure: as §3

IL-2 [2] = test: IL-2 expression by ELISA in stimulated mouse splenocytes; format: cell-based; conditions: Splenocyte, mouse splenocytes stimulated with anti-CD3+anti-CD28, 0 to 20 μM, read-out: IC50 of IL2 inhibition
Procedure: In yet another example, IL-2 expression was quantified by ELISA analysis. In these experiments, mouse splenocytes were stimulated with anti-CD3+anti-CD28, in the presence of varying doses of Rel inhibitors (from 0 to 20 μM).

L363 cells = test: Tumor cell cytotoxicity assay, multiple myeloma cell line L363; format: cell-based; conditions: L363 cells (active classical pathway), 48 hours
Procedure: as §1, §2

IFN-γ = IFN-γ expression, intracellular cytokine staining and flow cytometry in CD4+ T cells; format: cell-based, mouse or human; conditions: anti-CD3+anti-CD28 for 6 hours, % cytokine-expressing CD4+ T cells; data not shown
Procedure: as §3

DLBCL tumor cell lines = test: DLBCL cytotoxicity assay; format: cell-based; conditions: read-out: IC50 on DLBCL cytotoxicity assay
Procedure: as §2
The IC50 was defined as the concentration that causes 50% cell death compared with control samples. […] In summary, tumor cell lines were utilized to select for Rel inhibitors with tumor cytoxicity activities. […] Those compounds with in vitro anti-tumor activity were further tested in vivo using xenograft tumor models.

EAE = EAE model (multiple sclerosis) in C57BL/6 mice; format: in vivo, mouse
Procedure: As an example, C57BL/6 mice were immunized to induce EAE with 1) a subcutaneous injection on flanks of […] MOG38-50 peptide in 0.1 ml PBS emulsified in an equal volume of complete Freund's adjuvant containing […] mycobacterium tuberculosis H37RA, and 2) an intravenous injection of 100 ng pertussis toxin in 0.1 ml PBS. A second injection of pertussis toxin (100 ng per mouse) was given 48 hr later.
Mice were subsequently injected i.p. with 300 μg BA-039 (n=4) or vehicle (n=3) daily beginning with the first day of EAE onset. Mice were monitored daily for disease score up to 16 days.
In a second set of this experiment, treatment of the mice was stopped on the 16th day of the study and further monitored for additional 22 days. […] By contrast, the BA-039 treated group remained devoid of disease (average clinical score 1-2) (data not shown, manuscript in preparation). […] The data provide important information about treatment regimen with Rel inhibitors for multiple sclerosis patients in the future.

## COc1ccc(C=C2C(=O)NC(=S)NC2=O)c(OC)c1 [BA-001, 5-(2,4-dimethoxybenzylidene)-2-thioxodihydro-pyrimidine-4,6(1H,5H)-dione]
MM1-144 cells
  growth inhibition (cell numbers as percentage of control group): only partially inhibited
STZ-induced diabetes
  resistance to STZ-induced diabetes (glucose level): resistant to STZ-induced diabetes
CD69
  inhibitory effect toward non-c-Rel target genes (e.g. CD69): no inhibitory effects
DLBCL tumor cells; 24 mg/Kg i.p., three days per week, NOD/SCID mice
  tumor growth compared to vehicle controls: slowed the tumor growth
DLBCL tumor cells; both 12 to 24 mg/kg doses, DLBCL xenograft mouse model
  anti-tumor potency compared with DHMEQ: much better potency than DHMEQ
IL-2 [1]
  IC50: ~6 µM
RPMI8226 cells
  growth inhibition (cell numbers as percentage of control group): quite resistant
TNF
  IC50: ~6 µM
IL-2 [2]
  IC50: 15 µM
L363 cells
  growth inhibition (cell numbers as percentage of control group): dose-dependent apoptosis
IFN-γ
  IC50: ~6 µM

## COc1ccc(C=C2C(=O)NC(=O)NC2=O)c2ccccc12 [BA-009, 5-((4-methoxynaphthalen-1-yl)methylene) pyrimidine-2,4,6(1H,3H,5H)-trione]
DLBCL tumor cells; 15 mg/kg i.p., three days per week, NOD/SCID mice
  tumor volume compared to vehicle controls: significantly smaller tumor volume

## COc1ccc(N2C(=O)/C(=C\c3c(OC)ccc4ccccc34)C(=O)NC2=S)cc1 [BA-030, 5-((2-methoxynaphthalen-1-yl)methylene)-1-(4-methoxyphenyl)-2-thioxodihydro-pyrimidine-4,6(1H,5H)-dione]
DLBCL tumor cell lines
  IC50: 4 µM
IL-2 [2]
  IC50: 0.4 µM

## COc1cc(OC)c2ccccc2c1C=C1C(=O)NC(=S)NC1=O [BA-039, 5-((2,4-dimethoxynaphthalen-1-yl)methylene)-2-thioxodihydropyrimidine-4,6(1H,5H)-dione]
EAE; 300 μg i.p. daily from first day of EAE onset, up to 16 days, reduced from 2, vehicle rises 2 to 5
  disease score: 1
EAE; 22 days after treatment stopped on 16th day, control group score 5
  average clinical score: 1-2
